Assay results taken from patent publication US9174994B2, “Enhanced treatment regimens using mTor inhibitors” (INTELLIKINE LLC, priority 2011, dated 2015).

Test: Phase I clinical trial: treatment-emergent adverse events (patients, n (%)), dose limiting toxicity, MTD
Format: in vivo
Method: Safety, maximum tolerated dose (MTD), pharmacokinetics (PK) and preliminary antitumor activity were evaluated.
Pharmacodynamic (PD) endpoints were evaluated in surrogate (peripheral blood cells [PBCs], skin) and tumor tissues for the phosphorylation of TORC1-dependent markers (4EBP1/S6), and TORC2-dependent markers (AKT/PRAS40).

## CC(C)n1nc(-c2ccc3oc(N)nc3c2)c2c(N)ncnc21 [compound A]
15 mg/week (N = 3)
  Asthenia: 0 (0%)
  Blood creatinine increased: 1 (33%)
  Blood triglycerides increased: 1 (33%)
  DIARRHEA: 0 (0%)
  Decreased appetite: 0 (0%)
  Diarrhoea: 0 (0%)
  Dysgeusia: 0 (0%)
  Dyspepsia: 0 (0%)
  HYPERGLYCEMIA: 0 (0%)
  Hyperglycaemia: 2 (67%)
  Lymphopenia: 0 (0%)
  Malaise: 0 (0%)
  Mucosal inflammation: 0 (0%)
  Muscle spasms: 0 (0%)
  Nausea: 2 (67%)
  Oral discomfort: 0 (0%)
  Patients Reporting at Least One Related TEAE: 3
  Pruritus: 0 (0%)
  RASH: 0 (0%)
  Rash: 0 (0%)
  Vomiting: 0 (0%)
  WEAKNESS: 0 (0%)
16 mg/3 W, QDx3d QW (N = 3)
  Alanine aminotransferase increased: 0 (0%)
  Asthenia: 1 (33%)
  Catheter site inflammation: 0 (0%)
  Catheter site pain: 0 (0%)
  Decreased appetite: 0 (0%)
  Diarrhoea: 1 (33%)
  Dry skin: 0 (0%)
  Dysgeusia: 0 (0%)
  Dyspnoea: 0 (0%)
  Fatigue: 1 (33%)
  Headache: 1 (33%)
  Hyperbilirubinaemia: 0 (0%)
  Hypercholesterolaemia: 0 (0%)
  Hyperglycaemia: 2 (67%)
  Hypertransaminasaemia: 0 (0%)
  Hypertriglyceridaemia: 0 (0%)
  Hypomagnesaemia: 0 (0%)
  Hypotension: 0 (0%)
  Low fever: 1 (33%)
  Lymphopenia: 0 (0%)
  Mucosal inflammation: 2 (67%)
  Nausea: 0 (0%)
  Palmar-plantar erythrodysaesthesia syndrome: 0 (0%)
  Patients Reporting at Least One Related TEAE: 2 (67%)
  Platelet count decreased: 0 (0%)
  Pruritus: 0 (0%)
  Pyrexia: 1 (33%)
  Rash: 0 (0%)
  Rash macular: 0 (0%)
  Urinary tract infection: 0 (0%)
  Vomiting: 0 (0%)
16 mg/3 W, QDx3d QW (N = 3), 2nd Asthenia line
  Asthenia: 1 (33%)
20 mg Q3D
  Dose limiting toxicity: Muco-
20 mg/week (N = 3)
  ASTHENIA: 0 (0%)
  ATHENIA: 0 (0%)
  Alanine aminotransferase increased: 0 (0%)
  Aspartate aminotransferase increased: 0 (0%)
  Asthenia: 2 (67%)
  Blood creatinine increased: 0 (0%)
  Blood triglycerides increased: 0 (0%)
  DIARRHEA: 0 (0%)
  Decreased appetite: 1 (33%)
  Diarrhoea: 2 (67%)
  Dysgeusia: 0 (0%)
  Dyspepsia: 1 (33%)
  HYPERGLYCEMIA: 0 (0%)
  Hyperglycaemia: 1 (33%)
  Lymphopenia: 0 (0%)
  Malaise: 0 (0%)
  Mucosal inflammation: 2 (67%)
  Muscle spasms: 1 (33%)
  Nausea: 2 (67%)
  Oral discomfort: 0 (0%)
  Patients Reporting at Least One Related TEAE: 2 (67%)
  Pruritus: 1 (33%)
  RASH: 0 (0%)
  Rash: 1 (33%)
  Vomiting: 1 (33%)
  WEAKNESS: 0 (0%)
30 mg/week (N = 3)
  ASTHENIA: 1 (33%)
  ATHENIA: 1 (33%)
  Alanine aminotransferase increased: 0 (0%)
  Aspartate aminotransferase increased: 0 (0%)
  Asthenia: 0 (0%)
  Blood creatinine increased: 0 (0%)
  Blood triglycerides increased: 0 (0%)
  DIARRHEA: 1 (33%)
  Decreased appetite: 0 (0%)
  Diarrhoea: 0 (0%)
  Dysgeusia: 0 (0%)
  Dyspepsia: 0 (0%)
  HYPERGLYCEMIA: 2 (67%)
  Hyperglycaemia: 0 (0%)
  Lymphopenia: 0 (0%)
  Malaise: 1 (33%)
  Mucosal inflammation: 1 (33%)
  Muscle spasms: 0 (0%)
  Nausea: 3
  Oral discomfort: 0 (0%)
  Patients Reporting at Least One Related TEAE: 3
  Pruritus: 0 (0%)
  RASH: 1 (33%)
  Rash: 0 (0%)
  Vomiting: 1 (33%)
  WEAKNESS: 1 (33%)
40 mg QW
  Dose limiting toxicity: As-
